Values after ≈ are worked out from the molar mass of the structure shown.
Tests used:
[1] = test system: Helicobacter pylori; experiment: Antimicrobial activity against Helicobacter pylori isolated from gastrointestinal disease patient after 72 hrs by Etest method; assay type: functional
[2] = Binding affinity to Helicobacter pylori transglycosylase
[3] = test system: Helicobacter pylori; experiment: Antimicrobial activity against Helicobacter pylori; assay type: functional

CC[C@H]1OC(=O)[C@H](C)[C@@H](O[C@H]2C[C@@](C)(OC)[C@@H](O)[C@H](C)O2)[C@H](C)[C@@H](O[C@@H]2O[C@H](C)C[C@H](N(C)C)[C@H]2O)[C@](C)(OC)C[C@@H](C)C(=O)[C@H](C)[C@@H](O)[C@]1(C)O [CLARITHROMYCIN]
MIC90 [1]: 8 µg/mL (≈ 10.7 µM)

C[C@H]1COc2c(N3CCN(C)CC3)c(F)cc3c(=O)c(C(=O)O)cn1c23.C[C@H]1COc2c(N3CCN(C)CC3)c(F)cc3c(=O)c(C(=O)O)cn1c23.O [LEVOFLOXACIN]
MIC90 [1]: 1 µg/mL

Cc1ncc([N+](=O)[O-])n1CCO [METRONIDAZOLE]
MIC90 [1]: 16 µg/mL (≈ 93.5 µM)

C=C(C/C=C(\C)CCC=C(C)C)CCC(C)(C)/C=C/CC/C(C)=C/CO[C@@H](COP(=O)(O)O[C@H]1O[C@H](C(N)=O)[C@@](C)(O)[C@H](OC(N)=O)[C@H]1O[C@@H]1O[C@H](CO[C@@H]2O[C@H](CO)[C@@H](O)[C@H](O)[C@H]2O)[C@@H](O[C@@H]2O[C@H](C)[C@@H](O[C@@H]3O[C@H](C(=O)NC4=C(O)CCC4=O)[C@H](O)[C@H](O)[C@H]3O)[C@H](O)[C@H]2NC(C)=O)[C@H](O)[C@H]1NC(C)=O)C(=O)O [MOENOMYCIN A]
MIC90 [1]: 2 µg/mL (≈ 1.26 µM) | Kd [2]: 25 nM | MIC [3]: 1.3 µM (≈ 2.06 µg/mL)

CN(C)[C@@H]1C(O)=C(C(N)=O)C(=O)[C@@]2(O)C(O)=C3C(=O)c4c(O)cccc4[C@@](C)(O)[C@H]3C[C@@H]12 [TETRACYCLINE]
MIC90 [1]: 0.5 µg/mL (≈ 1.13 µM)

Reference: ChEMBL document CHEMBL3259665, “Development of bacterial transglycosylase inhibitors as new antibiotics: moenomycin A treatment for drug-resistant Helicobacter pylori” (Bioorg Med Chem Lett, 2014)
